Where “and” joins values, the source holds several entries; their conditions need not be identical. Equal entries are not always repeated.
Experiments:
[1] = system: G6pc promoter (G6p-Luc) in the liver; experiment: Live imaging of hepatic G6p-Luc reporter; assay type: in vivo, mouse
Excerpt: Complete DNA sequences encoding human Creb and Crtc2 were cloned in the plasmids psc811 and psc804 to express BD-CREB and VP16AD-CRTC2 recombined proteins, respectively. GAL4-luciferase and RSV (Rous Sarcoma Virus)-Renilla were constructed using the pGL3 plasmid. pGEX5X-1 and pET28C were used to construct plasmids for GST- and HIS-tagged proteins expression, respectively. Adenoviruses encoding Ad-HA-Crtc2, Ad-GFP, and Ad-RSV-β-Gal (galactosidase) have been described previously. For infecting primary hepatocytes, 0.5–1 MOI adenovirus was employed. For live imaging experiments, 10^8 plaques forming units (pfu) Ad-G6P-Luc and 5 × 10^7 pfu Ad-RSV-β-gal adenovirus were delivered to mice by tail vein injection. Mice were then imaged on day 3–5 after adenovirus delivery.
After two days of tail intravenously delivery of Ad-G6p-Luc (10^8 pfu) and Ad-RSV-β-Gal (5 × 10^7 pfu) adenoviruses, mice were orally administered propolis or i.p. injected with APC one dose per day for another 3 days. After 16 h fasting, mice were anesthetized using gaseous isoflurane (Abbott), were i.p. injected with 100 mg/kg sterile firefly D-luciferin (Biosynth AG), and 15 min later, imaged by IVIS-100 Imaging System and analyzed with Living Image Software (Xenogen). Liver lysates were prepared to determine β-Gal activity. Luciferase activity detected for each mouse was normalized to the β-Gal expression in the liver.

[2] = system: promoter occupancy in primary hepatocytes; experiment: ChIP assays; assay type: cell-based, mouse; settings: for ChIP: CBP, CRE-PGC1a, mean / ChIP: CBP, CRE-Pck1, mean: N=4
[3] = Daily food intake; assay type: in vivo, mouse; settings: for foodintake in DIO, mean / foodintake in DIO: DIO mice; for foodintake in DIO, mean: group mean, n=6; for foodintake in DIO: individual values; for foodintake of db/db: single animals; for foodintake of db/db, group mean: mean of APC group, N=5
[4] = system: HEK293T cells; experiment: MTT assay, HEK293T cells; assay type: cell-based, human; settings: Supp. Fig.10 b; individual replicates; Ctrl about 100
Protocol: 1 Supplementary Figure 10. A57 is novel inhibitor of the CREB/CRTC2 protein complex.
2 a) The inhibitory-activity of A57 as determined by two-hybrid reporter assay. HEK293T cells were
3 co-transfected with CREB/CRTC2 two-hybrid reporter system plasmids, following incubation with
4 indicated small molecules (10 µM) overnight before luciferase reporter assays (n=4 per treatment).
5 One of three independent experiments is shown here. Data are represented as mean ± SEM. *,
6 p < 0.05; **, p < 0.01; p values were determined by one-way ANOVA followed Dunnett’s multiple
8 b) Combinatorial analysis of the cell toxicity and inhibitory activity of A57. The CREB/CRTC2-two
9 hybrid reporter activity (as a normalized percentage) is the X-axis, and the cell activity tested by MTT
10 assay (as a normalized percentage) is the Y-axis. n=3.
11 c) Immunoblot of P-CREB and CRTC2 de-phosphorylation in primary hepatocytes incubated with
12 A57 and APC (10 µM) 1-h prior to glucagon (100 nM) stimulation for 30 min. One result from three
13 experiments is shown here (top), and relative P-CREB normalized by CREB is presented as a bar
14 graph (bottom, n=3). […]
15 values were determined by two-way ANOVA followed Bonferroni’s multiple comparisons test. […]
18 as mean ± SEM. ns, p > 0.05; *, p < 0.05; **, p < 0.01; p values were determined by two-way ANOVA […]

[5] = mean over Gluc0, Gluc30, Gluc60
[6] = primary hepatocytes exposed to glucagon, APC 10 μM

CC(C)=CCc1cc(C=CC(=O)O)cc(CC=C(C)C)c1O [APC, 3,5-diprenyl-4-hydroxycinnamic acid]
G6P-Luc reporter activity in the livers ([1]; DIO mice, i.p. 20 mg/kg daily, 3 days): substantially decreased
Relative G6P-LUC activity, folds (mean of column B) ([1]; Figure 8a right, group mean, n=5, VEH mean 0.996): 0.402 folds
Relative G6P-LUC activity, folds ([1]; Figure 8a right, individual mice, vs VEH): 0.6379 folds and 0.1281 folds and 0.5105 folds and 0.3399 folds and 0.3902 folds
ChIP CREB in LXRa promoter, Input % ([2]; ChIP-CREB, LXRa promoter, individual replicates, n=4): 48.6099 Input % and 36.4614 Input % and 38.9243 Input % and 32.1584 Input %
ChIP CREB in LXRa promoter, group mean (Mean 1) ([2]; ChIP-CREB, LXRa promoter, mean of N=4): 39.04 Input %
ChIP CRTC2 in LXRa promoter, Input % ([2]; ChIP-CRTC2, LXRa promoter, individual replicates, n=4): 91.9916 Input % and 76.2395 Input % and 65.9044 Input % and 83.3167 Input %
ChIP CRTC2 in LXRa promoter, group mean (Mean 1) ([2]; ChIP-CRTC2, LXRa promoter, mean of N=4): 79.36 Input %
ChIP-IgG in LXRa promoter, Input % ([2]; ChIP-IgG (control antibody), LXRa promoter, individual replicates, n=4): 0.8383 Input % and 0.5702 Input % and 0.8279 Input % and 1.761 Input %
ChIP-IgG in LXRa promoter, group mean (Mean 1) ([2]; ChIP-IgG (control antibody), LXRa promoter, mean of N=4): 0.9995 Input %
ChIP: LXRa recuited in Srebf1 promoter, relative enrichment folds, group mean (Mean 1) ([2]; ChIP-LXRa, Srebf1 promoter, mean of N=4): 0.4914 fold
ChIP: RXRa recuited in Srebf1 promoter, relative enrichment folds, group mean (Mean 1) ([2]; ChIP-RXRa, Srebf1 promoter, mean of N=4): 0.5838 fold
ChIP: LXRa recuited in Srebf1 promoter, relative enrichment folds ([2]; ChIP:LXRa, Srebf1 promoter, individual replicates, n=4): 0.5482 fold and 0.5209 fold and 0.4024 fold and 0.494 fold
ChIP: RXRa recuited in Srebf1 promoter, relative enrichment folds ([2]; ChIP:RXRa, Srebf1 promoter, individual replicates, n=4): 0.4207 fold and 0.6691 fold and 0.5173 fold and 0.7279 fold
ChIP: CBP, CRE-PGC1a, mean ([2]; Gluc0): 0.891
ChIP: CBP, CRE-Pck1, mean ([2]; Gluc0): 0.921
ChIP: CBP, CRE-PGC1a, mean ([2]; Gluc30): 0.574
ChIP: CBP, CRE-Pck1, mean ([2]; Gluc30): 0.749
ChIP: CBP, CRE-PGC1a, mean ([2]; Gluc60): 0.582
ChIP: CBP, CRE-Pck1, mean ([2]; Gluc60): 0.834
Mean of APC_ChIP: CBP, CRE-G6pc [2, 5]: 1.496
Mean of ChIP: CBP & APC, CRE-Pck1 [2, 5]: 0.835
Mean of ChIP: CBP & APC, CRE-Pgc-1a [2, 5]: 0.682
CRTC2 recruited to CRE sites of G6pc, Pgc-1α and Pck1 promoters (ChIP) [2, 6]: significantly attenuated
occupancy of CREB or CBP at CRE sites (ChIP) [2, 6]: little effect
LXRα and RXRα recruited to LXRE element of Srebf1 promoter (ChIP) ([2]; primary hepatocytes, APC 10 μM): reduced
occupancy of CRTC2 on half CRE site of Lxrα promoter (ChIP) ([2]; primary hepatocytes, glucagon, APC 10 μM): attenuated
foodintake in DIO, mean ([3]; APC 10mg/kg): 3.935 g/mouse/day
foodintake in DIO ([3]; APC 10mg/kg): 3.44 g/mouse/day and 4.55 g/mouse/day and 3.83 g/mouse/day and 3.87 g/mouse/day and 4.39 g/mouse/day and 3.53 g/mouse/day
foodintake in DIO, mean ([3]; APC 20mg/kg): 3.517 g/mouse/day
foodintake in DIO ([3]; APC 20mg/kg): 3.89 g/mouse/day and 3.58 g/mouse/day and 3.67 g/mouse/day and 3.06 g/mouse/day and 3.73 g/mouse/day and 3.17 g/mouse/day
foodintake of db/db ([3]; db/db mice, day 1): 6.30 g/per mouse/24h and 5.90 g/per mouse/24h and 7.80 g/per mouse/24h and 7.20 g/per mouse/24h and 6.43 g/per mouse/24h
foodintake of db/db, group mean ([3]; db/db mice, day 2): 6.34 g/per mouse/24h
foodintake of db/db ([3]; db/db mice, day 2): 5.90 g/per mouse/24h and 6.90 g/per mouse/24h and 7.10 g/per mouse/24h and 7.50 g/per mouse/24h and 6.30 g/per mouse/24h
foodintake of db/db, group mean ([3]; db/db mice, day 3): 6.44 g/per mouse/24h
foodintake of db/db ([3]; db/db mice, day 3): 6.10 g/per mouse/24h and 7.30 g/per mouse/24h and 5.80 g/per mouse/24h and 7.20 g/per mouse/24h and 6.20 g/per mouse/24h
foodintake of db/db, group mean ([3]; db/db mice, day 4): 6.5 g/per mouse/24h
foodintake of db/db ([3]; db/db mice, day 4): 7.40 g/per mouse/24h and 6.30 g/per mouse/24h (2×) and 6.20 g/per mouse/24h and 5.90 g/per mouse/24h
foodintake of db/db, group mean ([3]; db/db mice, day 5): 6.68 g/per mouse/24h
foodintake of db/db ([3]; db/db mice, day 5): 5.70 g/per mouse/24h and 7.20 g/per mouse/24h and 6.80 g/per mouse/24h and 7.90 g/per mouse/24h and 5.80 g/per mouse/24h
foodintake of db/db, group mean ([3]; db/db mice, day 6): 6.9 g/per mouse/24h
foodintake of db/db ([3]; db/db mice, day 6): 8.00 g/per mouse/24h and 6.80 g/per mouse/24h and 6.10 g/per mouse/24h and 7.20 g/per mouse/24h and 6.40 g/per mouse/24h
foodintake of db/db, column mean over days 1-6 ([3]; db/db mice, Mean of APC, two-way RM ANOVA): 6.737 g/per mouse/24h
daily food intake ([3]; obese mice, 2 weeks of APC injection): no significant effects
Cell activity % [4]: 95.723% and 93.186% and 92.837%

Reference: publication PMC8752738, “A propolis-derived small molecule ameliorates metabolic syndrome in obese mice by targeting the CREB/CRTC2 transcriptional complex” (Nature Communications, 2022)
